According to patent US12139729B2, “Neurodegenerative disorders” (priority 2013, dated 2024):
Residues, ends and D or L forms follow the SMILES beside them.

Experiments:
PC12 cells [1] = experiment: Cell Counting Kit-8 (CCK-8) cell viability assay; format: cell-based; details: T30 5 uM, FIG. 15
From the text: A Cell Counting Kit-8 (CCK-8) was used as an improvement of the SRB technique used before. By utilizing the highly water-soluble tetrazolium salt WST-8, CCK-8 produces a water-soluble formazan dye upon reduction in the presence of an electron carrier. WST-8 is reduced by dehydrogenases in cells to give a yellow colored product (formazan), which is soluble in the tissue culture medium. The amount of the formazan dye generated by the activity of dehydrogenases in cells is directly proportional to the number of living cells. PC12 cells are plated in 200 μl of complete growth medium the day before the experiment in 96 well plates. Treatments with T30 and NBP-14 are added and incubated for 1 hour in the incubator.
Subsequently, 100 μl of growth medium is removed and 10 μl of CCK-8 (Cell Counting Kit-8) solution is added. The plate is incubated for 2 hours in the incubator and then placed in the absorbance plate reader. The absorbance must be measured at 450 nm.

PC12 cells [2] = experiment: Sulforhodamine B (SRB) cell viability assay; format: cell-based
Protocol: Wild-type PC12 cell were provided by Sigma-Aldrich (St. Louis, MO). The culture was routinely plated in 100 mm dishes (Corning) coated with collagen (2 μg/cm^2) and maintained in growth medium with Minimum Essential Medium Eagle (MEM) supplemented with heat-inactivated 10% horse serum (HS) and 5% foetal bovine serum (FBS), 10 mM HEPES, 2 mM L-Glutamine and 1:400 Penicillin/streptomycin solution. Cells were maintained at 37° C. in a humidified atmosphere 5% CO2 and the medium was replaced every 2 days. For splitting, cells were dislodged from the dish using a pipette with medium, with a portion of these replated onto new cultured dishes. Cells were used between passages 12 and 25.
The cell viability assay used was the sulforhodamine B (SRB) colorimetric assay for toxicity screening. The day before of the experiment cells were seeded onto collagen-coated 96-well plates in a concentration of 40,000 cells/well. Cell concentration was determined by the Fuchs-Rosenthal chamber. […] After treatment, medium was replaced and cells were fixed by adding 100 μl of 10% Trichloroacetic Acid (TCA) for 1 h at 4° C. Thereafter, cells were washed with H2O and stained with 100 μl of a 0.057% SRB solution in 1% Acetic acid (HAc) for 30 minutes at room temperature. After staining cells were washed with 1% HAc for removing the excess of SRB and then incubated with 200 μl of 10 mM Tris base (pH 10.5) and shake it for 5 minutes to solubilise the protein-bound dye. Measurement of the absorbance took place in a VMax Kinetic Microplate Reader (Molecular Devices) at 490 nm.

CSCC[C@@H]1NC(=O)[C@H](Cc2ccc(O)cc2)NC(=O)[C@H](CO)NC(=O)[C@H](CO)NC(=O)[C@H](Cc2c[nH]c3ccccc23)NC(=O)[C@H](CCCNC(=N)N)NC(=O)[C@H](Cc2c[nH]cn2)NC(=O)[C@H](Cc2ccccc2)NC(=O)[C@H](CCC(=O)O)NC(=O)[C@H](C)NC(=O)[C@H](CCCCN)NC(=O)[C@H](Cc2c[nH]c3ccccc23)NC(=O)[C@H](Cc2c[nH]cn2)NC(=O)[C@H](C(C)C)NC1=O [Cyclic T14] (cyclo(AEFHRWSSYMVHWK))
concentration range protective against T30 induced cell death (PC12 cells [1]): high nanomolar range
protection against non-specific cytotoxic effect of H2O2 (H2O2 alone vs combined) (PC12 cells [2]; H2O2 100 μM + Cyclic T14 100 nM, PC12): no significant difference
threshold dose for full protection against β-amyloid (PC12 cells [2]; PC12, 1 hour): 1 nM
minimum effective concentration against β-Amyloid (10 μM) on cell viability (PC12 cells [2]; PC12, FIG. 8): 1 nM
blocks β-Amyloid at low doses (Table 3 feature) (PC12 cells [2]; ✓ = Dream Drug feature 'Blocks β-Amyloid at low doses 1 nM)'): ✓
